# Measured values reported in US7223865B2, “Chromogenic compounds, and use thereof as enzyme substrates” (Biomerieux, priority 2003, dated 2007).
# Key:
# Assay in all cases: L-alanine-aminopeptidase activity on gelled medium, Example 2
# Format in all cases: cell-based
# [1] = system: Streptococcus pyogenes (067)
# Procedure: (§1) A gelled medium comprising L-Ala-4-AP-10-AA as substrate is prepared as follows: 46.37 g of Columbia agar are added to 1 liter of distilled water and then autoclaved. The reaction medium is separated into three media of equivalent volume. Each of these media comprises, respectively, 0.1 g/l, 0.2 g/l, 0.4 g/l of L-Ala-4-AP-10-AA provided by means of a stock solution in DMSO.
# (§2) Microorganisms derived from the applicant's collection were seeded onto each of the media, by delimitation as three dials, using a suspension at 0.5 McFarland. The dishes were incubated at 37° C. for 48 hours. The colonies formed were examined visually after incubation for 24 and 48 hours. The color of these colonies and also the intensity of this color were noted.
# (§3) The results are expressed as color intensity, using an arbitrary scale range of from 0 to 4 as a basis.
# Listeria innocua (036) = system: Listeria innocua (036)
# Procedure: as §1, §2, §3
# Proteus mirabilis (103) = details: for Intensity: scale 0 to 4
# Procedure: as §1, §2, §3
# Candida albicans (056) = system: Candida albicans (056)
# Procedure: as §1, §2, §3
# [2] = system: Enterococcus faecalis (075); details: for Intensity: scale 0 to 4
# Procedure: as §1, §2, §3
# [3] = system: Klebsiella pneumoniae (023); details: for Intensity: scale 0 to 4
# Procedure: as §1, §2, §3
# Escherichia coli (032) = details: for Intensity: scale 0 to 4
# Procedure: as §1, §2, §3
# Citrobacter koseri (090) = details: for Intensity: scale 0 to 4
# Procedure: as §1, §2, §3
# [4] = system: Staphylococcus aureus (070)
# Procedure: as §1, §2, §3
compound,measurement,setting,value
"C=CC[n+]1c2ccccc2c(-c2ccc(NC(=O)[C@H](C)N)cc2)c2ccccc21.[Cl-] [L-Ala-4-AP-10-AA, L-alanyl-9-(4-aminophenyl)-10-allylacridinium chloride]",Color,"[1]; 0.1 g/l, 24 H",inhibited
same,Color,"[1]; 0.1 g/l, 48 h",colorless
same,Color,"[1]; 0.2 g/l, 24 H",inhibited
same,Color,"[1]; 0.2 g/l, 48 h",colorless
same,Color,"[1]; 0.4 g/l, 24 H",inhibited
same,Color,"[1]; 0.4 g/l, 48 h",colorless
same,Color,"Listeria innocua (036); 0.1 g/l, 24 H",colorless
same,Color,"Listeria innocua (036); 0.1 g/l, 48 h",colorless
same,Color,"Listeria innocua (036); 0.2 g/l, 24 H",colorless
same,Color,"Listeria innocua (036); 0.2 g/l, 48 h",colorless
same,Color,"Listeria innocua (036); 0.4 g/l, 24 H",colorless
same,Color,"Listeria innocua (036); 0.4 g/l, 48 h",colorless
same,Color,"Proteus mirabilis (103); 0.1 g/l, 24 H",beige
same,Intensity,"Proteus mirabilis (103); 0.1 g/l, 24 H",traces
same,Color,"Proteus mirabilis (103); 0.1 g/l, 48 h",beige
same,Intensity,"Proteus mirabilis (103); 0.1 g/l, 48 h",traces
same,Color,"Proteus mirabilis (103); 0.2 g/l, 24 H",pink-
same,Intensity,"Proteus mirabilis (103); 0.2 g/l, 24 H",0.5
same,Color,"Proteus mirabilis (103); 0.2 g/l, 48 h",pink-
same,Intensity,"Proteus mirabilis (103); 0.2 g/l, 48 h",1
same,Color,"Proteus mirabilis (103); 0.4 g/l, 24 H",pink-
same,Intensity,"Proteus mirabilis (103); 0.4 g/l, 24 H",3
same,Color,"Proteus mirabilis (103); 0.4 g/l, 48 h",pink-
same,Intensity,"Proteus mirabilis (103); 0.4 g/l, 48 h",3
same,Color,"Candida albicans (056); 0.1 g/l, 24 H",colorless
same,Color,"Candida albicans (056); 0.1 g/l, 48 h",colorless
same,Color,"Candida albicans (056); 0.2 g/l, 24 H",colorless
same,Color,"Candida albicans (056); 0.2 g/l, 48 h",colorless
same,Color,"Candida albicans (056); 0.4 g/l, 24 H",colorless
same,Color,"Candida albicans (056); 0.4 g/l, 48 h",colorless
same,Color,"[2]; 0.1 g/l, 24 H",colorless
same,Color,"[2]; 0.1 g/l, 48 h",colorless
same,Color,"[2]; 0.2 g/l, 24 H",orange
same,Intensity,"[2]; 0.2 g/l, 24 H",traces
same,Color,"[2]; 0.2 g/l, 48 h",orange
same,Intensity,"[2]; 0.2 g/l, 48 h",0.5
same,Color,"[2]; 0.4 g/l, 24 H",orange
same,Intensity,"[2]; 0.4 g/l, 24 H",traces
same,Color,"[2]; 0.4 g/l, 48 h",orange
same,Intensity,"[2]; 0.4 g/l, 48 h",1
same,Color,"[3]; 0.1 g/l, 24 H",beige
same,Intensity,"[3]; 0.1 g/l, 24 H",traces
same,Color,"[3]; 0.1 g/l, 48 h",beige
same,Intensity,"[3]; 0.1 g/l, 48 h",traces
same,Color,"[3]; 0.2 g/l, 24 H",pink-
same,Intensity,"[3]; 0.2 g/l, 24 H",1
same,Color,"[3]; 0.2 g/l, 48 h",pink-
same,Intensity,"[3]; 0.2 g/l, 48 h",2
same,Color,"[3]; 0.4 g/l, 24 H",pink-
same,Intensity,"[3]; 0.4 g/l, 24 H",3
same,Color,"[3]; 0.4 g/l, 48 h",pink-
same,Intensity,"[3]; 0.4 g/l, 48 h",3.5
same,Color,"Escherichia coli (032); 0.1 g/l, 24 H",beige
same,Intensity,"Escherichia coli (032); 0.1 g/l, 24 H",0.5
same,Color,"Escherichia coli (032); 0.1 g/l, 48 h",beige
same,Intensity,"Escherichia coli (032); 0.1 g/l, 48 h",0.5
same,Color,"Escherichia coli (032); 0.2 g/l, 24 H",pink-
same,Intensity,"Escherichia coli (032); 0.2 g/l, 24 H",2
same,Color,"Escherichia coli (032); 0.2 g/l, 48 h",pink-
same,Intensity,"Escherichia coli (032); 0.2 g/l, 48 h",2
same,Color,"Escherichia coli (032); 0.4 g/l, 24 H",pink-
same,Intensity,"Escherichia coli (032); 0.4 g/l, 24 H",2.5
same,Color,"Escherichia coli (032); 0.4 g/l, 48 h",pink-
same,Intensity,"Escherichia coli (032); 0.4 g/l, 48 h",3
same,Color,"Citrobacter koseri (090); 0.1 g/l, 24 H",beige
same,Intensity,"Citrobacter koseri (090); 0.1 g/l, 24 H",0.5
same,Color,"Citrobacter koseri (090); 0.1 g/l, 48 h",beige
same,Intensity,"Citrobacter koseri (090); 0.1 g/l, 48 h",0.5
same,Color,"Citrobacter koseri (090); 0.2 g/l, 24 H",pink-
same,Intensity,"Citrobacter koseri (090); 0.2 g/l, 24 H",1
same,Color,"Citrobacter koseri (090); 0.2 g/l, 48 h",pink-
same,Intensity,"Citrobacter koseri (090); 0.2 g/l, 48 h",2
same,Color,"Citrobacter koseri (090); 0.4 g/l, 24 H",pink-
same,Intensity,"Citrobacter koseri (090); 0.4 g/l, 24 H",3
same,Color,"Citrobacter koseri (090); 0.4 g/l, 48 h",pink-
same,Intensity,"Citrobacter koseri (090); 0.4 g/l, 48 h",3.5
same,Color,"[4]; 0.1 g/l, 24 H",inhibited
same,Color,"[4]; 0.1 g/l, 48 h",inhibited
same,Color,"[4]; 0.2 g/l, 24 H",inhibited
same,Color,"[4]; 0.2 g/l, 48 h",inhibited
same,Color,"[4]; 0.4 g/l, 24 H",inhibited
same,Color,"[4]; 0.4 g/l, 48 h",inhibited
